This note sets out measurements from patent US20240124431A1, “2,3-DIHYDRO-4H-BENZO[B][1,4]OXAZIN-4-YL)(5-(PHENYL)-PYRIDIN-3-YL)METHANONE DERIVATIVES AND SIMILAR COMPOUNDS AS CYP11A1 INHIBITORS FOR THE TREATMENT OF PROSTATE CANCER” (ORION CORPORATION, priority 2020, published 2024).

The target of this assay is T1, CYP11A1 (Homo sapiens, UniProt P05108).
T1 construct: endogenous in cells; host or cells: NCI-H295R
T1 sequence (P05108 40-521): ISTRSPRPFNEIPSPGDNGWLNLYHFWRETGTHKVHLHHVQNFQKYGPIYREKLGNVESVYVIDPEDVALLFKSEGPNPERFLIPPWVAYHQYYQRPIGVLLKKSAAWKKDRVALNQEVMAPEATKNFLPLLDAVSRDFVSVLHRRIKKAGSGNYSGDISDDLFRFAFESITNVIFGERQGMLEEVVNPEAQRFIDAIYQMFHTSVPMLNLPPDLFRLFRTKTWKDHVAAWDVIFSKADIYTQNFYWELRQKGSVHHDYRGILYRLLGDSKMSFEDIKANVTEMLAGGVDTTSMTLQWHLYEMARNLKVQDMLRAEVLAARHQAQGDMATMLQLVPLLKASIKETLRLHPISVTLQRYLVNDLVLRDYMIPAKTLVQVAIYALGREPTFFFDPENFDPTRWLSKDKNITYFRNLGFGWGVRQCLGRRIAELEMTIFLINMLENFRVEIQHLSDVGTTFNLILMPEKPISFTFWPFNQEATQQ
Put plainly: CYP11A1 inhibition: pregnenolone biosynthesis measured by ELISA in NCI-H295R cells. In kind it is cell-based. To be noted: NCI-H295R cells treated for 24 hours, 10 concentrations in duplicates, read-out: IC50 on CYP11A1 inhibition (Group). The procedure:
The ability of the test compounds to inhibit pregnenolone biosynthesis was measured by enzyme-linked immunosorbent assay (ELISA) detecting pregnenolone (Abnova Pregnenolone ELISA Kit, KA1912). […] To determine the half maximal inhibitory concentration (IC50) of the test compounds on CYP11A1 inhibition, the cells were treated for 24 hours with increasing concentrations of the test compound. The final DMSO concentration was 0.4%. Medium samples were diluted 1:6 and pregnenolone amounts determined with ELISA. Manufacturer's recommended protocols were used and pregnenolone (Sigma-Aldrich, P9129) standards were prepared in cell culture medium. Absorbance (A450) was measured with Envision plate reader (PerkinElmer). All the test compounds were studied at 10 concentrations in duplicates.
Turning to `O=C(c1cnnc(-c2ccc(F)cc2)c1)N1CCOc2ccccc21` [Compound 40, (2,3-Dihydro-4H-benzo[b][1,4]oxazin-4-yl)(6-(4-fluorophenyl)pyridazin-4-yl)-methanone], the IC50 was less than 50 nM.
Then `O=C(c1cncc(-c2ccccc2F)c1)N1CCOc2ccccc21` [Compound 41, (2,3-Dihydro-4H-benzo[b][1,4]oxazin-4-yl)(5-(2-fluorophenyl)pyridin-3-yl)-methanone], with less than 50 nM.
As for `O=C(c1cncc(-c2ccc(F)cc2)c1)N1CCCc2ncccc21` [Compound 42, (3,4-Dihydro-1,5-naphthyridin-1(2H)-yl)(5-(4-fluorophenyl)pyridin-3-yl)-methanone], the IC50 was 51 to 200 nM.
As for `Cn1cc(-c2cncc(C(=O)N3CCOc4ccccc43)n2)cn1` [Compound 43, (2,3-Dihydro-4H-benzo[b][1,4]oxazin-4-yl)(6-(1-methyl-1H-pyrazol-4-yl)-pyrazin-2-yl)methanone], the IC50 fell in the range of 51 to 200 nM.
In the case of `O=C(c1cncc(-c2ccc(C(F)(F)F)cc2)c1)N1CCOc2ccccc21` [Compound 44, (2,3-Dihydro-4H-benzo[b][1,4]oxazin-4-yl)(5-(4-(trifluoromethyl)phenyl)pyridin-3-yl)methanone] it was 51 to 200 nM.
Regarding `COc1cc(F)ccc1-c1cncc(C(=O)N2CCOc3ccccc32)c1` [Compound 45, (2,3-Dihydro-4H-benzo[b][1,4]oxazin-4-yl)(5-(4-fluoro-2-methoxyphenyl)-pyridin-3-yl)methanone], the IC50 lay within 51 to 200 nM.
For `O=S(=O)(c1cncc(-c2ccc(F)cc2)c1)N1CCOc2ccccc21` [Compound 46, 4-((5-(4-Fluorophenyl)pyridin-3-yl)sulfonyl)-3,4-dihydro-2H-benzo[b][1,4]-oxazine], the IC50 lay in the range of 51 to 200 nM.
Regarding `O=S(=O)(c1cncc(-c2ccc(F)cc2)c1)N1CCCc2ccccc21` [Compound 47, 1-((5-(4-Fluorophenyl)pyridin-3-yl)sulfonyl)-1,2,3,4-tetrahydroquinoline], the IC50 lay within 51 to 200 nM.
Then `O=C(c1cncc(-c2cccc(C(F)(F)F)c2)c1)N1CCOc2ccccc21` [Compound 48, (2,3-Dihydro-4H-benzo[b][1,4]oxazin-4-yl)(5-(3-(trifluoromethyl)phenyl)pyridin-3-yl)methanone], with 51 to 200 nM; and `O=C(c1cncc(-c2ccc(F)nc2)c1)N1CCOc2ccccc21` [Compound 49, (2,3-Dihydro-4H-benzo[b][1,4]oxazin-4-yl)(6′-fluoro-[3,3′-bipyridin]-5-yl)-methanone], with 51 to 200 nM; and `COc1cccc(-c2cncc(C(=O)N3CCOc4ccccc43)c2)c1` [Compound 50, (2,3-Dihydro-4H-benzo[b][1,4]oxazin-4-yl)(5-(3-methoxyphenyl)pyridin-3-yl)-methanone], with 51 to 200 nM.
Then `C=C(c1ccccc1)c1cncc(C(=O)N2CCCc3ccccc32)c1` [Compound 51, (3,4-Dihydroquinolin-1(2H)-yl)(5-(1-phenylvinyl)pyridin-3-yl)methanone], with 51 to 200 nM; and `O=C(c1cnnc(-c2ccccc2)c1)N1CCCc2ccccc21` [Compound 52, (3,4-Dihydroquinolin-1(2H)-yl)(6-phenylpyridazin-4-yl)methanone], with 51 to 200 nM; and `COc1ccc2c(c1)CCCN2C(=O)c1cncc(-c2ccccc2)c1` [Compound 53, (6-Methoxy-3,4-dihydroquinolin-1(2H)-yl)(5-phenylpyridin-3-yl)methanone], with 51 to 200 nM.
In the case of `O=C(c1cncc(-c2ccc(CO)cc2)c1)N1CCCc2ccccc21` [Compound 54, (3,4-Dihydroquinolin-1(2H)-yl)(5-(4-(hydroxymethyl)phenyl)pyridin-3-yl)-methanone] it was 51 to 200 nM; in that of `O=C(c1cncc(-c2ccc(F)cc2)c1)N1CCOC2CCCCC21` (centres unmarked) [Compound 55, (5-(4-Fluorophenyl)pyridin-3-yl)(octahydro-4H-benzo[b][1,4]oxazin-4-yl)-methanone], 51 to 200 nM.
Take `O=C(c1cncc(-c2ccc(F)cc2)c1)N1CCO[C@H]2CCCC[C@@H]21` [Compound 56, (5-(4-Fluorophenyl)pyridin-3-yl)((4aS,8aS)-octahydro-4H-benzo[b][1,4]oxazin-4-yl)methanone]: the IC50 fell in the range of 51 to 200 nM.
Turning to `O=C(c1cncc(-c2ccc(F)cc2)c1)N1CCO[C@@H]2CCCC[C@H]21` [Compound 57, (5-(4-Fluorophenyl)pyridin-3-yl)((4aR,8aR)-octahydro-4H-benzo[b][1,4]oxazin-4-yl)methanone], the half-inhibitory concentration (IC50) is 201 to 2500 nM.
As for `O=C(c1cncc(-c2ccc(F)c([N+](=O)[O-])c2)c1)N1CCOc2ccccc21` [Compound 58, (2,3-Dihydro-4H-benzo[b][1,4]oxazin-4-yl)(5-(4-fluoro-3-nitrophenyl)pyridin-3-yl)methanone], the IC50 was in the range of 201 to 2500 nM.
As for `COc1cccc2c1CCCN2C(=O)c1cncc(-c2ccccc2)c1` [Compound 59, (5-Methoxy-3,4-dihydroquinolin-1(2H)-yl)(5-phenylpyridin-3-yl)methanone], the IC50 lay within 201 to 2500 nM.
Then `O=C(c1cncc(-c2ccc(F)cc2)c1)N1CCc2ccccc21` [Compound 60, (5-(4-Fluorophenyl)pyridin-3-yl)(indolin-1-yl)methanone], with 201 to 2500 nM.
Consider `O=C(c1cncc(-c2ccccc2)c1)N1CCCc2ncccc21` [Compound 61, (3,4-Dihydro-1,5-naphthyridin-1(2H)-yl)(5-phenylpyridin-3-yl)methanone], for which the IC50 is 201 to 2500 nM.
As for `O=C(c1cncc(-c2ccncc2)c1)N1CCCc2ccccc21` [Compound 62, [3,4′-Bipyridin]-5-yl(3,4-dihydroquinolin-1(2H)-yl)methanone], the IC50 lay in the range of 201 to 2500 nM.
With `Cn1nccc1-c1cncc(C(=O)N2CCOc3ccccc32)n1` [Compound 63, (2,3-Dihydro-4H-benzo[b][1,4]oxazin-4-yl)(6-(1-methyl-1H-pyrazol-5-yl)-pyrazin-2-yl)methanone], the IC50 fell in the range of 201 to 2500 nM.
Consider `CC1CCc2ccccc2N1C(=O)c1cnnc(-c2ccc(F)cc2)c1` (centres unmarked) [Compound 64, (6-(4-Fluorophenyl)pyridazin-4-yl)(2-methyl-3,4-dihydroquinolin-1(2H)-yl)-methanone], for which the half-inhibitory concentration (IC50) fell in the range of 201 to 2500 nM.
Then `O=C(c1cncc(-c2ccc(CO)cc2)c1)N1CCOc2ccccc21` [Compound 65, (2,3-Dihydro-4H-benzo[b][1,4]oxazin-4-yl)(5-(4-(hydroxymethyl)phenyl)pyridin-3-yl)methanone], with 201 to 2500 nM; and `O=C(c1cncc(C2=CCOCC2)c1)N1CCOc2ccccc21` [Compound 66, (5-(3,6-Dihydro-2H-pyran-4-yl)pyridin-3-yl)(2,3-dihydro-4H-benzo[b][1,4]-oxazin-4-yl)methanone], with 201 to 2500 nM; and `COC(=O)c1ccc2c(c1)CCCN2C(=O)c1cncc(-c2ccccc2)c1` [Compound 67, Methyl 1-(5-phenylnicotinoyl)-1,2,3,4-tetrahydroquinoline-6-carboxylate], with 201 to 2500 nM.
Take `CN(C)Cc1ccc(-c2cncc(C(=O)N3CCCc4ccccc43)c2)cc1` [Compound 68, (3,4-Dihydroquinolin-1(2H)-yl)(5-(4-((dimethylamino)methyl)phenyl)pyridin-3-yl)methanone]: the IC50 was 201 to 2500 nM.
